This is an account of results in patent US20260060973A1, “Ophthalmic Composition for Treating Non-Infectious Inflammatory Diseases” (VIVAVISION BIOTECH LTD., priority 2023, published 2026).

The nature of one data set: Solubility in water. The class given is physicochemical.
A further data set has as its target Janus kinase 1 (JAK1) (Homo sapiens, UniProt P23458). Nature of the data set: Mechanism of action of VVN461. The format is biochemical. From the text:
(§1) JAK- or TYK-dependent cytokines are associated with non-infectious inflammatory diseases (e.g., uveitis or other ocular diseases), which is a potential therapeutic target for immune-mediated uveitis. VVN461 can target both Janus kinase 1 (JAK1) and tyrosine kinase 2 (TYK2), target JAK/TYK-dependent cytokines, and inhibit Janus kinase (JAK)/signal transducer and activation of transcription (STAT) pathway, and thus can be used for the treatment of non-infectious inflammatory diseases such as uveitis. […] These phosphorylated receptor residues that act as binding sites for STAT proteins are activated by the phosphorylation of the JAKs, so that STAT proteins are dimerized and translocated to the nucleus of the cell, thereby bind to specific DNA sites and regulate gene expression, which in turn leads to inflammation. In contrast, VVN461 of the present application can target JAK/TYK-dependent cytokines and inhibit the JAK/STAT pathway, and thus can be used for the treatment of non-infectious inflammatory diseases such as uveitis.

Another data set deals with tyrosine kinase 2 (TYK2) (Homo sapiens, UniProt P29597). In words: Mechanism of action of VVN461. The format is biochemical.
Sequence of tyrosine kinase 2 (TYK2) (P29597 whole entry, species assumed): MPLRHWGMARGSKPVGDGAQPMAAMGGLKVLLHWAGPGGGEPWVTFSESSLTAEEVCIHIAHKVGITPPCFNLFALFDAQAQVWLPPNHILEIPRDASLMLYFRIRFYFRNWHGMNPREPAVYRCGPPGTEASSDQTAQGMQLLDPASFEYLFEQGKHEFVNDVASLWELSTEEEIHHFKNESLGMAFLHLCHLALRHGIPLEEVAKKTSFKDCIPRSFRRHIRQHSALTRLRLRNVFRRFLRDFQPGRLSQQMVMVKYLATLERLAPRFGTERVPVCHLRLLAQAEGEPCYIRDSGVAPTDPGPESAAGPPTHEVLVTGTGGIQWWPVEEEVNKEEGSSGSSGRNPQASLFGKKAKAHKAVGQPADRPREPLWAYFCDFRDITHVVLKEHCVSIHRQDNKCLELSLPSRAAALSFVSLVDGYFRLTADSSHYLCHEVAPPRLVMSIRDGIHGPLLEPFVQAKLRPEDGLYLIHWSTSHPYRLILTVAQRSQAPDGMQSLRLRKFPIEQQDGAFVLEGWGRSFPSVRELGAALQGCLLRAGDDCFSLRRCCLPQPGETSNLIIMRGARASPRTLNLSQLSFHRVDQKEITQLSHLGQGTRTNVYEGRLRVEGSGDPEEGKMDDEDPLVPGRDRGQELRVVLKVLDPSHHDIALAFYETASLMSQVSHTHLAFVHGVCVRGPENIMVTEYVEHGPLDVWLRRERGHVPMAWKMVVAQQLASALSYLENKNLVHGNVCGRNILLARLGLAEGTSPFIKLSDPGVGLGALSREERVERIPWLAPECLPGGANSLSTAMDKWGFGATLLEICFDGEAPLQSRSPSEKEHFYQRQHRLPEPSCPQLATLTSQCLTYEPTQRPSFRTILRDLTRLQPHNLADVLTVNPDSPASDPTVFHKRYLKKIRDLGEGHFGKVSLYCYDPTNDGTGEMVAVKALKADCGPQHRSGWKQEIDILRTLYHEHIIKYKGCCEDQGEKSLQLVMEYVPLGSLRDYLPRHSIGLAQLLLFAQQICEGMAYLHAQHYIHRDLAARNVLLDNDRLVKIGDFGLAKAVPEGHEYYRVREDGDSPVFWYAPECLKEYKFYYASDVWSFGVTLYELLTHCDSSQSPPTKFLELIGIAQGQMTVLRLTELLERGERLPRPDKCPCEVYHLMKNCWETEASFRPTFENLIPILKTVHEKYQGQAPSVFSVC
Text: as §1

Entries after “also recorded” stand apart in the source; their conditions may differ.

Sequence of Janus kinase 1 (JAK1) (P23458 whole entry, species assumed): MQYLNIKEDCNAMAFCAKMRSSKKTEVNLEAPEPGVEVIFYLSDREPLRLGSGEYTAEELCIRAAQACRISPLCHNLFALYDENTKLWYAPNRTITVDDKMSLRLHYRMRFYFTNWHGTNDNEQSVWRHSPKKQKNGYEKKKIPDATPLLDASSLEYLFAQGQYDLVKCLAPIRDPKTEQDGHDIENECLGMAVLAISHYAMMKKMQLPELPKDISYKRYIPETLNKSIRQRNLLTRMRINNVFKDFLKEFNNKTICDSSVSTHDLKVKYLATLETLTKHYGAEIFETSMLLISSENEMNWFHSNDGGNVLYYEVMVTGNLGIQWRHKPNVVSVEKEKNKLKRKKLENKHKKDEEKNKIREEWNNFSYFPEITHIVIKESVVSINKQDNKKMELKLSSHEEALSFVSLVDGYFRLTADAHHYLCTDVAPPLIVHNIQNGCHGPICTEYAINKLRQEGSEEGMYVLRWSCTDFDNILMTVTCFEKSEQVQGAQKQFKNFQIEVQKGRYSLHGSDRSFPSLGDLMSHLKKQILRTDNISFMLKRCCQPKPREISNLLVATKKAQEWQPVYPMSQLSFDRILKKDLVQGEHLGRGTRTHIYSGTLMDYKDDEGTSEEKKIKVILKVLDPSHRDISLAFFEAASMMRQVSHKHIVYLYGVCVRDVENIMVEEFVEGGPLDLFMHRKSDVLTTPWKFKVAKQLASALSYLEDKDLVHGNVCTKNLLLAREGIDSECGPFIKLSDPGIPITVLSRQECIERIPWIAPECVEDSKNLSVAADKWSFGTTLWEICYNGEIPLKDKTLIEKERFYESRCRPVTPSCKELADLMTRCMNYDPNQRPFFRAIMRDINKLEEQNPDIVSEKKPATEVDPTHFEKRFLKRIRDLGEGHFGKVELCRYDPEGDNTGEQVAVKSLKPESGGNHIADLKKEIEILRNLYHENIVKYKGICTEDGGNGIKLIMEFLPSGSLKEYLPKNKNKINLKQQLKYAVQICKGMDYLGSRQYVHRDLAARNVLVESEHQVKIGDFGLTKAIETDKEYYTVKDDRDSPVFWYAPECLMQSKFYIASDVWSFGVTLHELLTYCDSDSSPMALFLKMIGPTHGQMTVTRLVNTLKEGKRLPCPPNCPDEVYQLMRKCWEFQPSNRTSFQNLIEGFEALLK

For `C[C@@H](O)c1nc2cnc3[nH]ccc3c2n1N1CCC(CC#N)CC1` [VVN461, (R)-2-(1-(2-(1-hydroxyethyl)imidazo[4,5-d]pyrrolo[2,3-b]pyridin-1(6H)-yl)piperidin-4-yl)acetonitrile], in “Solubility in water”, the solubility entry is listed as “practically insoluble in water; also recorded: low water solubilities”. Moreover, the JAK1 inhibition result at Janus kinase 1 (JAK1) is listed as “dual JAK1/TYK2 inhibitor”. In addition, the TYK2 inhibition entry at tyrosine kinase 2 (TYK2) is given as “dual JAK1/TYK2 inhibitor”.
